Here are results for 89 molecules from a melting point compilation (Tetko et al.; mined from patent text by program, amines drawn as free bases though some values may be those of a salt).

`COc1ccc(-c2cc(=O)c3c(OCC(O)CO)cc(OCC(O)CO)cc3o2)cc1O` (centres undefined) registered a melting point of 204 °C.

Take `CCOC(=O)C(=O)Nc1nc(C)cs1`: the melting point was 171 to 173 °C.

As for `CC1(C)C2CC=C(CCn3c(=O)nc(-c4ccccc4)c4cc([N+](=O)[O-])ccc43)C1C2` (centres undefined), the melting point was 80 to 81 °C.

The molecule `O=C1NC(=O)N2c3ccccc3[C@H]3CCN4CCC[C@H]1[C@H]4[C@H]32` (racemic) returned a melting point of 235 °C.

In the case of `CC(C)C(NS(=O)(=O)c1ccccc1)C(=O)NO` (centres undefined), the melting point was in the range of 154 to 155 °C.

Regarding `CCOC(=O)C1=C(C)Nc2nc(N3CCOCC3)nc(N3CCOCC3)c2C1c1ccccc1C` (centres undefined), the melting point amounted to 234 °C.

`CCOC(=O)C(C#N)=NC(=CN1CCOCC1)CC` yielded a melting point of 127 to 128 °C.

`CC(C)(C)C(=O)CC(=O)c1cccc(C(=O)CC(=O)C(C)(C)C)c1` returned a melting point of 106 to 108 °C.

In the case of `COc1cc2cc3ncc(C#N)c(Nc4ccc(Cl)cc4Cl)c3cc2cc1OC`, the melting point was in the range of 271 to 273 °C.

For the molecule `CC(=O)c1cc(Cn2ccnc2)ccc1O`, the melting point is 106 to 107 °C.

Molecule `Cc1cc2c(cc1Cl)N(C(=O)Nc1ccc(C)c(-c3cccnc3)c1)CC2` had a melting point of 202 to 203 °C.

In turn, `CSCCNC(=O)c1cccc(-c2cccc3cc(Cc4cccc(C(F)(F)F)c4)oc23)c1` gave a melting point of 135 to 138 °C.

Take `O=C(OCC1CC1)c1ncn2c1[C@@H]1CCN1C(=O)c1cc(F)ccc1-2`: the melting point was in the range of 171 to 172 °C.

The molecule `COc1ccc(N2C(=O)N(c3ccccc3)c3nc(Nc4ccccc4)ncc3C2C(C)C)cc1` (centres undefined) returned a melting point of 229 to 235 °C.

In the case of `CC(=Cc1ccc(-c2ccc(Cl)cc2)cc1)[N+](=O)[O-]`, the melting point stood at 114 °C.

As for `CCNC(=O)[C@@H]1C[C@H](SCc2ccc(OC)cc2)CN1C(=O)OC(C)(C)C`, the melting point lay in the range of 92 to 94 °C.

`CCCCCCCCCCCC(=O)OC1CC(c2ccccc2)NC(c2ccccc2)C1` (centres undefined) had a melting point of 40 to 42 °C.

In turn, `CCNc1nc2cccc(C(=O)OC)c2n1Cc1ccc(-c2ccccc2-c2nnn[nH]2)cc1` showed a melting point of 256 to 258 °C.

In turn, `O=C(O)c1cc(S)cc2c1OCCO2` displayed a melting point of 191 to 192 °C.

Turning to `COc1ccc(N(CCCCCO)S(=O)(=O)c2c(F)c(F)c(F)c(F)c2F)cc1`, the melting point fell in the range of 96 to 97 °C.

The molecule `CC(C)(C)C(=O)NC(=O)N1CC1C#N` (centres undefined) gave a melting point of 136 to 138 °C.

Take `N#CCc1cc(-c2ccc(Cl)cc2)n(-c2ccc(S(N)(=O)=O)cc2)n1`: the melting point was 212 to 214 °C.

For `Cc1oc2nc3c(c(N)c2c1C)C(=O)CCC3`, the melting point lay within 190 to 198 °C.

Molecule `Cn1c(/C=C/C(=O)O)c(-c2ccccc2)c2ccccc2c1=O` showed a melting point of 266 to 268 °C.

On to `CP(=O)(O)CC(F)CN` (centres undefined), for which the melting point fell in the range of 78 to 84 °C.

`C#CCOCC(=O)Nc1ccccc1` showed a melting point of 142 to 145 °C.

With `COC(=O)CCc1cc(C(=O)c2ccc(OC)cc2)c(OC)cc1OC`, the melting point lay in the range of 114 to 117 °C.

Regarding `CC[C@@H](C)[C@H]1c2ccccc2-c2ccccc2N1S(=O)(=O)c1ccc(O)cc1` (relative stereo), the melting point is 115 to 118 °C.

As to `CC(C)(C)N(Cc1ccccc1)CC(O)c1cc(OCc2ccccc2)cc(OCc2ccccc2)c1` (centres undefined), the melting point was in the range of 78 to 79 °C.

`COc1ccc(C(=N)N(N)c2c(Cl)cncc2Cl)cc1OC1CCCC1`: the melting point fell in the range of 130 to 131 °C.

In turn, `CCOC(=O)CCCNCc1nn2c(-c3ccc(OC)cc3)nnc2c2ccccc12` displayed a melting point of 103 to 105 °C.

`CC(C)(c1ccccc1)N1CC=C(c2ccccc2)C1=O`: the melting point lay in the range of 85 to 86 °C.

Molecule `COc1cc2sc(C(=N)NO)cc2c(F)c1OC` came in with a melting point of 186 to 190 °C.

In turn, `Cc1ccc(NC(=S)N2CCC(O)C2)c(C)c1` (centres undefined) came in with a melting point of 164 to 166 °C.

In the case of `O=C(Nc1ccccc1[N+](=O)[O-])C12CC3CC(CC(C3)C1)C2`, the melting point lay within 111 to 114 °C.

As for `CC(C)(C)OC(=O)N(CC=CCl)c1cc(OCc2ccccc2)c2ncccc2c1I`, the melting point was 115 to 135 °C.

For the molecule `CN1CC(CCl)C(c2ccccc2)(c2ccccc2)C1=O` (centres undefined), the melting point was in the range of 120 to 122 °C.

Take `OC1(c2ccc(F)cc2)CCN(Cc2ccnc(-c3ccccc3)c2)CC1`: the melting point lay in the range of 149 to 151 °C.

Consider `CC(C)(C)C(=O)Oc1ccc(OC(=O)C(C)(C)C)c(C(=O)O)c1`, for which the melting point fell in the range of 159 to 162 °C.

Regarding `COc1cc2ncnc(N3CCN(C(=S)NCc4ccc(C(C)(C)C)cc4)CC3)c2cc1OC`, the melting point is 104 to 105 °C.

`CC(=O)N1c2ccc(F)cc2CC1C#N` (centres undefined) returned a melting point of 93 to 95 °C.

In the case of `CNC(=O)c1cnc(Cl)cc1-c1ccccc1C`, the melting point is 91 to 93 °C.

Regarding `CN1CCN(Cc2ccc(-c3cc4c(Nc5cccc6[nH]ccc56)c(C#N)cnc4s3)cc2)CC1`, the melting point was > 245 °C.

Take `CCOC(=O)C(=O)Nc1ccc(Br)cc1[N+](=O)[O-]`: the melting point lay within 168 to 169 °C.

In the case of `CC1CC2=C(N3CN(C)N=C3C(c3ccccc3Cl)=NC2)S1=O` (centres undefined), the melting point was 199 to 200 °C.

With `Cc1ccc(S(=O)(=O)N(C)c2cc(C(C)(C)C)c(O)c(C(C)(C)C)c2)cc1`, the melting point is 130 to 142 °C.

Turning to `Cc1nnsc1C(=O)Nc1ccc(-n2nc(C3CC3)cc2C2CC2)cc1`, the melting point lay in the range of 117 to 120 °C.

Molecule `O=C1CCC(N2Cc3c(OCc4ccc(CN5CCOCC5)c(F)c4)cccc3C2=O)C(=O)N1` (centres undefined) came in with a melting point of 263 to 265 °C.

`Cn1ccnc1Sc1ccc(Nc2c(C#N)cnc3cc(/C=C/CCN4CCC(N5CCCC5)CC4)sc23)cc1Cl` had a melting point of 213 to 216 °C.

The molecule `CCc1nc2c(n1Cc1ccc(-c3ccccc3)cc1)C(=O)N(C)CN2c1ccc(Cl)cc1Cl` showed a melting point of 216 to 217 °C.

For the molecule `O[C@@H]1c2ccccc2CC[C@H]1NCc1ccccc1` (relative stereo), the melting point lay within 110 to 114 °C.

Turning to `Cc1cc(CCC[C@H](CC(=O)OC(C)(C)C)C(=O)N[C@H](C(=O)O)C(C)(C)C)ccc1-c1ccccc1`, the melting point is 51 to 56 °C.

Consider `CSc1cc(CO)cc(S(N)(=O)=O)c1Cc1ccccc1`, for which the melting point was in the range of 190 to 192 °C.

`CCc1nnc2c(OC)nc3cc(Cl)ccc3n12` gave a melting point of 221 to 223 °C.

`O=C(Nc1ccc(OC(F)(F)F)cc1)N[C@H]1CC[C@H](O)CC1` registered a melting point of 224 to 225 °C.

For `COC(=O)Nc1ccc(C2=NNC(=O)CC2C)cc1` (centres undefined), the melting point lay in the range of 228 to 229 °C.

As for `COC(=O)CCCCCCCCCCNC(=O)C(CSC(C)=O)Cc1ccccc1` (centres undefined), the melting point was 64 to 66 °C.

On to `O=c1nc(-c2ccccn2)sc2ccc(OCCCCCCO)cc12`, for which the melting point is 136 to 137 °C.

In the case of `CCC(=O)Nc1ccc(C(=O)CC)cc1`, the melting point was in the range of 154 to 155 °C.

The molecule `CCCN(CCC)CCCCCOc1ccc2oc(-c3ccc(OC)cc3)cc(=O)c2c1` had a melting point of 63 to 64 °C.

In turn, `Cc1cc2c(N)c([N+](=O)[O-])cnc2s1` returned a melting point of 238 to 240 °C.

`Cc1cc(Cl)c2c(c1)C(=O)N(C(C)(C)C)CC(=O)N2` had a melting point of 151 to 152 °C.

Regarding `CC(CCCl)C(=O)Nc1scc(C(C)(C)C)c1C#N` (centres undefined), the melting point lay in the range of 115 to 116 °C.

In turn, `CCNc1ccc(NC(C)=O)c(C)c1` registered a melting point of 102 to 103 °C.

Turning to `CC(C)N1C(=O)c2ccccc2N(C(=O)CCl)S1(=O)=O`, the melting point lay within 133 to 135 °C.

`Cc1ncc2cc(-c3c(Cl)cccc3Cl)c(NC(=O)N(C)C)nc2n1` registered a melting point of 177 to 181 °C.

As for `CC(=O)OC1CSC(Oc2cnc(Cl)c(Cl)c2)C(OC(C)=O)C1OC(C)=O` (centres undefined), the melting point was 128 °C.

For the molecule `C[C@H]1C[C@@](O)(c2cccc(S(=O)(=O)c3cc4c(cc3F)N(C)C(=O)CC4)c2)CCO1`, the melting point lay within 135 to 138 °C.

In turn, `COC(=O)Cc1ccc[nH]c1=O` yielded a melting point of 183 to 184 °C.

On to `Cc1ccccc1S(=O)(=O)NC(=O)CCc1cc(OC(C)C)nn1Cc1ccc(Cl)cc1Cl`, for which the melting point lay in the range of 165 to 166 °C.

On to `CCN(CC)CCn1c(O)nc2cc(Cl)c(Cl)nc21`, for which the melting point fell in the range of 137 to 139 °C.

As for `CN1C(=O)CC[C@]2(C)c3ccc(-c4ccc(C#N)cc4)cc3CC[C@@H]12`, the melting point lay within 148 to 150 °C.

`CCOC(=O)c1sc(SC(C)C)c2c1CCc1nc(C)oc1-2` gave a melting point of 62 to 63 °C.

Take `CN(C)C=Nc1nc(=O)n(-c2ccsc2)cc1F`: the melting point fell in the range of 211 to 213 °C.

Turning to `Cc1cc(C(F)(F)F)nn1CC(=O)N1CCC(c2nc(NC(=O)C3=C(O)CCCC3=O)cs2)CC1`, the melting point was 102 to 105 °C.

Turning to `O=S1(=O)NC(c2ccccc2)Nc2c(Br)cc(Br)cc21` (centres undefined), the melting point lay within 186 to 189 °C.

The molecule `CCCCCCCCCCCCCCCCCCOc1cc(C(=O)OC)cc(C(=O)N(CC(=O)OCC)CC(=O)OCC)c1` registered a melting point of 57 to 60 °C.

`CCCCCCC(O)CNCC(O)CO` (centres undefined) had a melting point of 85 to 90 °C.

On to `CCOC(=O)CC(=O)c1cc(F)c(S(=O)(=O)CC)nc1Nc1ccc(F)cc1F`, for which the melting point lay within 113 to 114 °C.

In the case of `CC1(C)CC(=C(c2ccc(O)cc2)c2ccc(OCCOCCO)cc2)CC(C)(C)C1`, the melting point is 122 to 124 °C.

`COC(=O)COc1nsc2nc(C)cc(C)c12` displayed a melting point of 89 to 91 °C.

For `CN(C(=S)N[C@@H](Cc1ccc(NC(=O)c2c(Cl)cncc2Cl)cc1)C(=O)O)c1ccccc1C(=O)NCC1CCCCC1`, the melting point was 175 °C.

`COC(=O)CCCC#Cc1cc(C)c2oc(=O)n(C)c2c1`: the melting point fell in the range of 97 to 98 °C.

As for `CCOC(=O)c1cnc2c(OC)cccc2c1Nc1cscc1OC`, the melting point is 176 to 178 °C.

`COc1ccc(CCC(C)=O)cc1S(N)(=O)=O` had a melting point of 176 to 179 °C.

`CCOC(=O)CC1CN=C(c2cc3cc(OC(F)(F)F)cc(N(C)S(=O)(=O)c4cccs4)c3[nH]2)S1` (centres undefined) yielded a melting point of 93 to 94 °C.

As to `O=C(O)c1cc2cc(Cl)ccc2nc1NC(Cc1cccc(F)c1)C(=O)O` (centres undefined), the melting point lay in the range of 177 to 181 °C.

`C/C(=C\c1ccc(C(F)(F)F)cc1)C(=O)O` had a melting point of 170 °C.

With `CCn1ccc(C(=O)c2sc(NC(=O)c3ccncc3)nc2-c2ccco2)cc1=O`, the melting point fell in the range of 277 to 281 °C.
